Laboratory results from publication PMC10716780, “The multistep oxidation of cholesterol to pregnenolone by human cytochrome P450 11A1 is highly processive” (The Journal of Biological Chemistry, 2023).
Read-outs that look alike come from different tables or passages of the source.

Assays:
human P450 11A1 [1] = molecular target: T1, human P450 11A1 (Homo sapiens, UniProt P05108); test: Steady-state spectral (type I) binding titration, Kd determination
T1 construct: M A S T R S P R P F N E I P S P G D N; Met-Ala (N-terminal start residues in place of the transit peptide and Ile40) (N); made in house; host or cells: E. coli C41(DE3) with GroES/GroEL, vector pET23C(+)
T1 sequence (P05108 41-521 limits assumed): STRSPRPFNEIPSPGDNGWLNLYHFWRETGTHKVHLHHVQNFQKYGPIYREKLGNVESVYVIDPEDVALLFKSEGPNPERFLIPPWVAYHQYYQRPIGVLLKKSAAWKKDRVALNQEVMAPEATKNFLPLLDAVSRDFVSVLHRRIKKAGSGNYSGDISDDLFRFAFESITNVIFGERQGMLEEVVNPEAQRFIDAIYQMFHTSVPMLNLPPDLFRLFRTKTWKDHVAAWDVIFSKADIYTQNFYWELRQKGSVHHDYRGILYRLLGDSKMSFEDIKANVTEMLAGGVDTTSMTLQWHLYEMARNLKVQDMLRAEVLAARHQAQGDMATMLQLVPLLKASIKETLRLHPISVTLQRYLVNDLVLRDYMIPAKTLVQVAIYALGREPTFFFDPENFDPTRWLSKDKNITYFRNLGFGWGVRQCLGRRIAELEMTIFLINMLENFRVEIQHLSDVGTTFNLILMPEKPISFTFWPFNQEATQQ
Experimental: Ligand binding constants were determined from the low-to high-spin (hypsochromic) spectral transition that occurs at the P450 heme as substrate entering the active site replaces water as the sixth axial heme ligand. […] As a result, we subsequently measured koff values of the P450-sterol complexes, which were consistent with the low Kd values observed (see below). Binding titrations were repeated in the presence of Adx (1 M equivalent, Fig. 6), although no significant effect was observed, even when Adx was added in excess (10-fold with cholesterol as the substrate, data not shown).
Spectra were recorded using either an OLIS-Cary 14 or OLIS-Aminco DW2a instrument (On-Line Instrument Systems) in the split-beam mode. The OLIS-Cary 14 instrument was used in the P450 11A1 titrations with a 10-cm cell (Starna Cells, catalog no. 34-Q-100, volume 25 ml).
Kd values were determined by difference spectroscopy as previously reported ([33], [43]) but with some modifications. Briefly, a long-path quartz cuvette (10 cm, 25 ml) containing P450 11A1 (0.1 μM, in 100 mM potassium phosphate buffer (pH 7.4)) was prepared and a baseline was recorded in an OLIS-Cary 14 spectrophotometer. Where indicated, the redox partner Adx was added in equimolar concentration (0.1 μM) to P450. Sterol solutions (in 45% HPCD, w/v) were added to the cuvette, the contents of the cuvette were inverted to mix, and a spectrum was recorded (350–500 nm) after each addition. The total volume added to each cuvette was kept ≤2% (v/v, 0.25 ml) in the assay. The maximum absorbance difference (usually ΔA390−A418) was plotted against the total sterol concentration, and the data were fit to a quadratic equation in GraphPad Prism software (GraphPad, https://www.graphpad.com) to estimate the dissociation constant (Kd). A quadratic equation was used to correct the ligand concentration for the enzyme-bound concentration (used as Y=B+A/2∗1/E∗((Kd+E+X)−(Kd+E+X)^2−(4∗E∗X)) (or Y = B + (A/2)∗(1/E)∗((Kd + E + X)-sqrt((Kd + E + X)∧2 -(4∗E∗X)) in Prism software), where E = enzyme concentration, Kd = dissociation constant, and X = […]).

human P450 11A1 [2] = molecular target: T2, human P450 11A1 (Homo sapiens, UniProt P05108); test: Kinetic modeling of single-turnover reactions (KinTek Explorer); assay type: biochemical; parameters: M A S T R S P R P F N E I P S P G D N; Met-Ala (N-terminal start residues in place of the transit peptide and Ile40) (N); made in house; host or cells: E. coli (P450 11A1 in C41(DE3); Adx and AdR in E. coli); conditions: for k^+ of oxidation step of enzyme-bound sterol, high Adx: high Adx (50 μM); for k^+ of oxidation step of enzyme-bound sterol, high Adx / k^+ of oxidation step of enzyme-bound sterol, low Adx: adjusted to fit single-turnover data; for k^+ of oxidation step of enzyme-bound sterol, low Adx: low Adx (5 μM)
T2 sequence (P05108 41-521 limits assumed): T1 sequence (P05108 41-521 limits assumed)
T2 sequence (P00257 59-186 partner): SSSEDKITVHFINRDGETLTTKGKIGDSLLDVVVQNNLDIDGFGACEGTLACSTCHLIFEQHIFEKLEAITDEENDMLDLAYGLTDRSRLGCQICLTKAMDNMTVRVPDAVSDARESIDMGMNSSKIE
Description: A minimal kinetic model was assembled to fit the data of the single-turnover reactions (Fig. 9) using the parameters listed in Table 2 (Fig. 14). […] Each oxidation reaction is irreversible, and thus the rates of the reverse reactions (k-2, k-4, k-6) were set to zero. The single-turnover data (Fig. 9) were fit to a single exponential to calculate the first-order decay of cholesterol, that is, the rate of cholesterol 22R-hydroxylation (k2). […] The rate of 20R-hydroxylation of 22R-OH cholesterol (k4) was estimated similarly to k2 from exponential fitting of first-order formation of the 20R,22R-(OH)2 sterol from the 22R-OH sterol.
Data were imported into KinTek Explorer software (v. 11.01, KinTek, https://kintekcorp.com/software) ([63]) as txt files and processed using an Apple computer (operating system 11.6.2). The indicated kinetic model (Table 2) was used with the enzyme and substrate concentrations, first estimating the rate of disappearance of the substrate cholesterol.

[3] = 0.10 μM P450 11A1, 10 cm cuvette, with 0.10 μM Adx, quadratic fit, read-out: Kd, (+) Adx
[4] = 0.10 μM P450 11A1, 10 cm cuvette, without Adx, quadratic fit, read-out: Kd, (−) Adx
[5] = read-out: k^+ for ligand binding to P450 11A1 (kon) used in model, set to the value determined for P450 11A1 and ketoconazole
[6] = read-out: k^− for ligand dissociation (koff) used in model, values measured by stopped-flow spectroscopy

| SMILES | Kd (human P450 11A1 [1]; [3]) [nM] | Kd (human P450 11A1 [1]; [4]) [nM] | k^+ of oxidation step of enzyme-bound sterol, high Adx (human P450 11A1 [2]) [s⁻¹] | k^+ of oxidation step of enzyme-bound sterol, low Adx (human P450 11A1 [2]) [s⁻¹] | kon (human P450 11A1 [2]; [5]) [M⁻¹ s⁻¹] | koff (human P450 11A1 [2]; read-out: k^− for ligand dissociation (koff) used in model) [s⁻¹] | k^+ for ligand binding to P450 11A1 (kon) used in model (human P450 11A1 [2]; set to the value determined for P450 11A1 and ketoconazole, listed as Q) [M⁻¹ s⁻¹] | Kd (human P450 11A1 [1]; Kd, 100 nM P450 11A1, 10-cm cell, quadratic fitting) [nM] | Kd (human P450 11A1 [1]; Kd, (+) Adx, 0.10 μM P450 11A1, 10 cm cuvette, with 0.10 μM Adx, quadratic fit) [nM] | Kd (human P450 11A1 [1]; Kd, (−) Adx, 0.10 μM P450 11A1, 10 cm cuvette, without Adx, quadratic fit) [nM] | koff (human P450 11A1 [2]; [6]) [s⁻¹] | k^+ for ligand binding to P450 11A1 (kon) used in model (human P450 11A1 [2]; set to the value determined for P450 11A1 and ketoconazole, listed as P) [M⁻¹ s⁻¹] | k^− for ligand dissociation (koff) used in model (human P450 11A1 [2]; values measured by stopped-flow spectroscopy, listed as P) [s⁻¹] | k^+ for ligand binding to P450 11A1 (kon) used in model (human P450 11A1 [2]; set to the value determined for P450 11A1 and ketoconazole, listed as S) [M⁻¹ s⁻¹] | k^+ for ligand binding to P450 11A1 (kon) used in model (human P450 11A1 [2]; set to the value determined for P450 11A1 and ketoconazole, listed as R) [M⁻¹ s⁻¹] | kon (human P450 11A1 [2]; set to the value determined for P450 11A1 and ketoconazole, read-out: k^+ for ligand binding to P450 11A1 (kon) used in model) [M⁻¹ s⁻¹] | koff (human P450 11A1 [2]; values measured by stopped-flow spectroscopy, read-out: k^− for ligand dissociation (koff) used in model) [s⁻¹] |
| --- | --- | --- | --- | --- | --- | --- | --- | --- | --- | --- | --- | --- | --- | --- | --- | --- | --- |
| CC(C)CC[C@@H](O)[C@](C)(O)[C@H]1CC[C@H]2[C@@H]3CC=C4C[C@@H](O)CC[C@]4(C)[C@H]3CC[C@]12C [20R,22R-(OH)2 Chol, (20R,22R)-Cholest-5-ene-3β,20,22-triol] | 40 ± 10 | 30 ± 20 | 1.7 | 0.55 | 500000 | 0.39 | 530000 | – | – | – | – | – | – | – | – | – | – |
| CC(C)CC[C@H](O)[C@](C)(O)[C@H]1CC[C@H]2[C@@H]3CC=C4C[C@@H](O)CC[C@]4(C)[C@H]3CC[C@]12C [20R,22S-(OH)2 Chol, (20R,22S)-Cholest-5-ene 3β,20,22-triol] | 90 ± 20 | 120 ± 30 | – | – | – | – | – | – | – | – | – | – | – | – | – | – | – |
| CC(C)CC[C@@H](O)[C@@H](C)[C@H]1CC[C@H]2[C@@H]3CC=C4C[C@@H](O)CC[C@]4(C)[C@H]3CC[C@]12C [22R-OH Chol, 22R-hydroxycholesterol] | – | – | 1.5 | 0.4 | 500000 | – | – | ~20 | 20 ± 3 | 20 ± 10 | 0.04 | 530000 | 0.044 | – | – | – | – |
| CC(C)CCC[C@@H](C)[C@H]1CC[C@H]2[C@@H]3CC=C4C[C@@H](O)CC[C@]4(C)[C@H]3CC[C@]12C [Cholesterol] | 110 ± 10 | 120 ± 10 | 0.12 | 0.04 | 500000 | – | – | – | – | – | 0.24 | – | – | 530000 | – | – | – |
| CC(=O)[C@H]1CC[C@H]2[C@@H]3CC=C4C[C@@H](O)CC[C@]4(C)[C@H]3CC[C@]12C [Pregnenolone] | 560 ± 120 | 480 ± 220 | – | – | – | – | – | – | – | – | – | – | – | – | 530000 | 500000 | 0.55 |
